Test results as given in patent US8613927B2, “High affinity human antibodies to human nerve growth factor” (Regeneron Pharmaceuticals, Inc., priority 2007, dated 2013).

Columns and labels:
mouse NGF (mNGF) = mouse NGF (mNGF) (Mus musculus, UniProt P01139); assay: BIACORE binding affinity to mouse NGF
Experimental: Antigen binding affinities of the antibodies for human NGF were determined by surface kinetics using a real-time biosensor surface plasmon resonance assay (BIACORE™). Antibodies were captured on either a goat, anti-human or anti-mouse IgG polyclonal antibody surface created by direct amine coupling of the capture antibody to a BIACORE™ chip. Various concentrations of human NGF were injected over the captured antibody surfaces while the association of the antigen to the antibody and the dissociation of the bound complex were monitored in real time. Kinetic analysis was performed to obtain the equilibrium dissociation constant (KD) and dissociation rate constant, and the latter was used to calculate the antigen/antibody complex dissociation t1/2 (Table 1).
Human NGF (NGF) is highly homologous in amino acid sequence to mouse NGF (mNGF) and rat NGF (rNGF) with about 90% identity. The binding affinities of the antibodies to both mNGF and rNGF were determined as described above.
The binding affinity of selected purified anti-NGF antibodies to mNGF and rNGF were also determined (Table 6).

[1] = target: T1, Human NGF (MG87 cells stably transfected with human TrkA receptor) (Homo sapiens, UniProt P01138, DEL136-138/DEL208-209); assay: NGF-dependent, TrkA receptor-mediated cell growth of MG87 cells (CCK8); format: cell-based; details: 373 pM human NGF; 3 days
T1 construct: host or cells: NGF added exogenously; partner TrkA made by stably transfected MG87 cells
Experimental: The ability of NGF antibodies to block NGF-dependent and TrkA receptor-mediated cell growth activity was carried out using MG87 cells stably transfected with a plasmid encoding human TrkA receptor. Briefly, the transfected cells were trypsinized and resuspended at approximately 2.5×10^5 cells per ml and plated at 5,000 cells per well in a 96-well tissue culture plate. The purified antibody proteins were serially diluted in defined medium plus 0.1% BSA and added to the plated cells at concentrations ranging from 0 to 500 nM. Human NGF was added to the wells to a final concentration of 373 pM. The response was measured after incubating the cells for 3 days at 37° C. in a humidified 5% CO2 incubator. Cell growth activity was measured with a CCK8 kit (Dojindo) and OD450nm recorded. The dependency of the signals on the concentrations of antibody was analyzed and IC50 values reported (Table 10, column 2).

C57BL/6 male mice = assay: Complete Freund's Adjuvant (CFA) test of inflammatory pain, Hargreaves' test; format: in vivo, mouse
Experimental: Complete Freund's Adjuvant (CFA) test of inflammatory pain. To determine if anti-NGF antibodies could relieve pain in a chronic peripheral inflammatory mouse model, complete Freund's adjuvant (CFA) was injected subcutaneously (s.c.) into the hind paw of C57BL/6 male mice, causing thermal hyperalgesia, which was measured using the Hargreaves' test (Torres et al. (2007) Pain 130:267-278). Control mice received the vehicle (i.e., PBS) only. After acclimating the mice to the Hargreaves' apparatus (model 336, IITC Life Science) for 2-3 hours per day for 3 days, they were tested in the apparatus with an active intensity setting of 17%. A cut-off time of 25 sec was used to avoid tissue damage. For each mouse, 3 readings were obtained during a period of 30 min per day and the median latency was used for analysis. […] The Hargreaves' test was repeated daily for up to 4 days after CFA injection and % decrease from the baseline in paw withdrawal latency calculated (Tables 12 and 13, mean % change±SEM). […] There was no statistical difference between the tested antibodies and the control antibody. Table 12: n=7 for each group; all groups 10 mg/kg.

C57BL/6 mice = assay: Post-operative incision pain model, thermal hyperalgesia in Hargreaves' test; format: in vivo, mouse; details: for mean percent change from Hargreaves baseline: Table 14; for Hargreaves' test result (thermal hyperalgesia): Table 16
Experimental: Post-operative incision pain model. […] For the plantar incision surgery, C57BL/6 mice under isoflurane received an incision through skin, fascia and then isolating the underlying flexor muscle and bisecting vertically. After suture and recovery, the mice were tested for thermal hyperalgesia in the Hargreaves' test and for guarding behavior in the weight bearing test (model 600, IITC Life Science) for 5 days.
Thermal hyperalgesia was studied in the Hargreaves' test and mechanical allodynia was tested in the von Frey test. In this latter test, mice were tested after being acclimated for 2-3 hours for 4 days in an apparatus with a wire mesh floor. The test was performed by applying, in ascending order, a series of von Frey hairs through the wire mesh onto the plantar surface of the hind paw with the incision. A response was considered positive if the paw was raised from the platform in response to application of the filament. Starting from the thinnest hair, each von Frey filament was applied up to five times until a response was observed.

[2] = tested on: NT-3 levels in sera of naïve C57BL/6 mice; assay: Serum NT-3 sandwich ELISA, naive mice; format: in vivo, mouse; details: 50 mg/kg s.c.
Text: The limit of detection (˜40 pg/ml) was defined as two standard deviations (2σ) above background with a minimum of five NT-3 standards to define the response to concentration curve.

Chain of mouse NGF (mNGF) (P01139 122-241): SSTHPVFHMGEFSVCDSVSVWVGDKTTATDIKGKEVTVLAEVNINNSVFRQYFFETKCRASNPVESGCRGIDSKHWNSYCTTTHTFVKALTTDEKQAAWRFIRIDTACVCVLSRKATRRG
T1 sequence (P01138 with tags, fused parts or gaps DEL136-138/DEL208-209): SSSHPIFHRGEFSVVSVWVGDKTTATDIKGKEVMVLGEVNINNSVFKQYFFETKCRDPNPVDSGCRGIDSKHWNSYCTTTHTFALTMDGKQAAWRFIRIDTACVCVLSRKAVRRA

tanezumab [RN624]
Kd (mouse NGF (mNGF); Table 5): 1.4 pM
Kd (mouse NGF (mNGF); Table 6, selected purified antibodies): 1.4 pM
IC50 [1]: < 186 pM
% decrease from the baseline in paw withdrawal latency (C57BL/6 male mice; Table 12, 10 mg/kg s.c. 1 hr before CFA, Baseline, mean±SEM): 0.0 ± 0.0%
% decrease from the baseline in paw withdrawal latency (C57BL/6 male mice; Table 12, 10 mg/kg s.c., Day 1 after CFA): −58.3 ± 5.5%
% decrease from the baseline in paw withdrawal latency (C57BL/6 male mice; Table 12, 10 mg/kg s.c., Day 2 after CFA): −30.9 ± 5.2%
% decrease from the baseline in paw withdrawal latency (C57BL/6 male mice; Table 12, 10 mg/kg s.c., Day 3 after CFA): −20.7 ± 6.3%
% decrease from the baseline in paw withdrawal latency (C57BL/6 male mice; Table 13, 10 mg/kg s.c., Baseline): 0.0 ± 0.0%
% decrease from the baseline in paw withdrawal latency (C57BL/6 male mice; Table 13, 10 mg/kg s.c., Day 1 after CFA): −61.7 ± 9.7%
% decrease from the baseline in paw withdrawal latency (C57BL/6 male mice; Table 13, 10 mg/kg s.c., Day 2 after CFA): −33.1 ± 17.9%
% decrease from the baseline in paw withdrawal latency (C57BL/6 male mice; Table 13, 10 mg/kg s.c., Day 3 after CFA): −9.6 ± 15.4%
% decrease from the baseline in paw withdrawal latency (C57BL/6 male mice; Table 13, 10 mg/kg s.c., Day 4 after CFA): −0.4 ± 18.5%
reduction of post-operative pain vs vehicle, Hargreaves' test (C57BL/6 mice; 10 mg/kg s.c. 1 hr prior to incision, p<0.001-0.05): significantly reduced the post-operative pain
reversal of thermal hyperalgesia (C57BL/6 mice; 25 mg/kg i.p. on day 1 post-surgery, by 72 hours, p<0.001-0.01): return to baseline was not observed
mean percent change from Hargreaves baseline (C57BL/6 mice; 10 mg/kg s.c. 1 hr prior to incision, Baseline, ±SEM): 0.00 ± 0.0%
mean percent change from Hargreaves baseline (C57BL/6 mice; 10 mg/kg s.c. pre-incision, Day 1 after surgery): −62.5 ± 10.6%
mean percent change from Hargreaves baseline (C57BL/6 mice; 10 mg/kg s.c. pre-incision, Day 2 after surgery): −55.2 ± 9.4%
mean percent change from Hargreaves baseline (C57BL/6 mice; 10 mg/kg s.c. pre-incision, Day 3 after surgery): −5.3 ± 12.1%
mean percent change from Hargreaves baseline (C57BL/6 mice; 10 mg/kg s.c. pre-incision, Day 4 after surgery): −6.4 ± 8.7%
mean percent change from Hargreaves baseline (C57BL/6 mice; 10 mg/kg s.c. pre-incision, Day 5 after surgery): −5.3 ± 5.6%
Hargreaves' test result (thermal hyperalgesia) (C57BL/6 mice; 25 mg/kg i.p. on day 1 post-surgery, Baseline): 0.0 ± 0.0
Hargreaves' test result (thermal hyperalgesia) (C57BL/6 mice; 25 mg/kg i.p., 6 hr after treatment): −68.1 ± 5.2
Hargreaves' test result (thermal hyperalgesia) (C57BL/6 mice; 25 mg/kg i.p., 23 hr after treatment): −40.5 ± 8.9
Hargreaves' test result (thermal hyperalgesia) (C57BL/6 mice; 25 mg/kg i.p., 47 hr after treatment): −37.6 ± 7.2
Hargreaves' test result (thermal hyperalgesia) (C57BL/6 mice; 25 mg/kg i.p., 72 hr after treatment): −47.2 ± 8.0
Hargreaves' test result (thermal hyperalgesia) (C57BL/6 mice; 25 mg/kg i.p., Day 1 (post-surgery, before injection)): −74.7 ± 4.3
Serum NT-3 ([2]; Day 1, limit of detection ~40 pg/ml): 131 ± 41 pg/mL
Serum NT-3 ([2]; Day 7): 199 ± 15 pg/mL
Serum NT-3 ([2]; Day 14): 196 ± 35 pg/mL
NT-3 levels ([2]; over 1, 7 and 14 days post treatment): 131 to 199 pg/mL
